Data published in PubChem BioAssay AID1996.
Values after ≈ are worked out from the molar mass of the structure shown. Non-standard residues stand in square brackets, D forms with d. Residues, ends and D or L forms follow the SMILES beside them. ξ: configuration not given here. *: point of attachment. Tos = Cc1ccc(S(=O)(=O)*)cc1; ξP = O=C(O)C1CCCN1

Conditions: buffer; pH 7.4; 200.0 µM
For `CCCCS(=O)(=O)N1CCCC(C(=O)Oc2ccc(Cl)cc2)C1` (stereo not given), the solubility kinetic was < 0.8 µg/mL.
In the case of `Cc1ccc(C(=O)OCC(=O)NCCN2C(=O)CSC2=O)cc1[N+](=O)[O-]`, the solubility kinetic was > 57.2 µg/mL.
`Cc1ccc(NC(=O)CCOc2ccccc2C)cc1C` gave a solubility kinetic of 1.7 µg/mL (≈ 6 µM).
In the case of `COc1ccc([N+](=O)[O-])cc1NCC(=O)c1ccc(C)cc1`, the solubility kinetic was 14.2 µg/mL (≈ 47.3 µM).
With `Cc1cccc(-c2nc3ccccc3c(=O)[nH]2)c1` the solubility kinetic was 4.2 µg/mL (≈ 17.8 µM).
With `CSC1=NCCN1C(=O)c1ccc2ccccc2c1` the solubility kinetic was 1.9 µg/mL (≈ 7.03 µM).
`CCOc1ccc2nc(NC(=O)c3ccco3)sc2c1` showed a solubility kinetic of 6.9 µg/mL (≈ 23.9 µM).
For `CC(C)CCNC(=O)C1(c2cccs2)CCOCC1`, the solubility kinetic was > 42.2 µg/mL.
Work on `CC(C)(C)c1csc(NC(=O)CSC2=NCCS2)n1` yielded a solubility kinetic of 10.6 µg/mL (≈ 33.6 µM).
With `COC(=O)CCSC(=S)N1CCOCC1` the solubility kinetic was > 37.4 µg/mL.
For `CCOC(=O)CC(N)c1cccc([N+](=O)[O-])c1.Cl` (stereo not given), the solubility kinetic was > 41.2 µg/mL.
With `CC(C)NC(=O)c1cc(-c2cccs2)nc2ccccc12` the solubility kinetic was 4.6 µg/mL (≈ 15.5 µM).
For `Cc1nn(Cc2cccc(C(=O)O)c2)c(C)c1[N+](=O)[O-]`, the solubility kinetic was > 41.3 µg/mL.
With `CC(OC(=O)c1ccc(O)cc1)C(=O)Nc1ccc(Oc2ccccc2)cc1` (stereo not given) the solubility kinetic was 5 µg/mL (≈ 13.2 µM).
Compound `O=C(Nc1cccc(-c2cn3ccccc3n2)c1)c1ccccc1` has a solubility kinetic of 21 µg/mL (≈ 67 µM).
Work on `CN(CCC(=O)c1ccccc1)CCC(=O)c1ccccc1` yielded a solubility kinetic of 42.3 µg/mL (≈ 143 µM).
For `O=C(Nc1ccncc1)C1CC(=O)N(Cc2ccccc2)C1` (stereo not given), the solubility kinetic was > 44.3 µg/mL.
For `O=C(Nc1cccnc1)C1CC(=O)N(c2ccc(F)cc2)C1` (stereo not given), the solubility kinetic was > 44.9 µg/mL.
`CC(=O)Nc1ccc(C(=O)NCC(c2ccco2)N(C)C)cc1` (stereo not given) gave a solubility kinetic of 44.7 µg/mL (≈ 142 µM).
With `COc1cc(OC)c(C(=O)NCC2CCCO2)cc1OC` (stereo not given) the solubility kinetic was > 44.3 µg/mL.
Compound `O=C(NCC(=O)N1CCN(c2ncccn2)CC1)c1ccccc1OC(F)F` has a solubility kinetic of 52.2 µg/mL (≈ 133 µM).
In the case of `C=CCn1c(O)c(/C=N/NC(=O)c2ccncc2)c(=O)[nH]c1=O`, the solubility kinetic was > 47.3 µg/mL.
Work on `COc1ccc(-n2c(C)ccc2C)c([N+](=O)[O-])c1` yielded a solubility kinetic of 22.7 µg/mL (≈ 92.2 µM).
In the case of `CCn1cnc2cc(NCc3cccs3)ccc21`, the solubility kinetic was > 38.6 µg/mL.
For `S=c1[nH]ccn1-c1ccccc1Cl`, the solubility kinetic was > 31.6 µg/mL.
Work on `CCOP(=O)(OCC)C(NC(=O)c1ccc(OC)cc1)c1ccccc1` (stereo not given) yielded a solubility kinetic of 53.8 µg/mL (≈ 143 µM).
In the case of `Cc1ncoc1C(=O)Nc1ncc([N+](=O)[O-])s1`, the solubility kinetic was > 38.1 µg/mL.
With `O=C(O)c1ccccc1C(=O)N1CCN(S(=O)(=O)c2cccc(C(F)(F)F)c2)CC1` the solubility kinetic was > 66.4 µg/mL.
For `Cl.O=C(CCN1CCOCC1)Nc1ccc(Cl)cc1`, the solubility kinetic was > 45.8 µg/mL.
With `CNC(=O)c1cc(S(=O)(=O)NC2CCCCCC2)ccc1C` the solubility kinetic was > 48.7 µg/mL.
In the case of `O=C(NCc1ccc(F)cc1F)Nc1cnccc1C(F)(F)F`, the solubility kinetic was > 49.7 µg/mL.
With `O=C(NCc1ccccc1)C12CC3CC(CC(Br)(C3)C1)C2` the solubility kinetic was 6.6 µg/mL (≈ 19 µM).
`COc1cc(/C=C(\C#N)c2nc3ccccc3[nH]2)ccc1O` showed a solubility kinetic of 4.9 µg/mL (≈ 16.8 µM).
With `Cc1cccc(NC(=S)NC(=O)c2oc3ccccc3c2C)n1` the solubility kinetic was < 0.2 µg/mL.
With `COc1ccc(C)cc1COC(=O)c1[nH]c(C)c(C(C)=O)c1C` the solubility kinetic was > 47.3 µg/mL.
In the case of `Cn1ccnc1C(=O)c1ccc(N)cc1`, the solubility kinetic was > 30.2 µg/mL.
`COc1ccccc1Cc1nc(-c2cccnc2)no1` gave a solubility kinetic of 31.9 µg/mL (≈ 119 µM).
Work on `CNC(=O)c1ccc(NC(=O)/C=C/c2cccc(F)c2)cc1` yielded a solubility kinetic of 1.4 µg/mL (≈ 4.69 µM).
With `CC(Oc1ccc(Br)cc1Br)C(=O)Nc1cccnc1Cl` (stereo not given) the solubility kinetic was < 0.5 µg/mL.
For `CC(=O)Nc1ccc(S(=O)(=O)Nc2ccn(Cc3ccccc3Cl)n2)cc1`, the solubility kinetic was > 60.7 µg/mL.
`COc1cccc(Oc2ccc(C(F)(F)F)cc2NC(=O)C2=COCCO2)c1` showed a solubility kinetic of 1.5 µg/mL (≈ 3.79 µM).
`Clc1ccccc1/C=C/c1nc(-c2cccnc2)no1` showed a solubility kinetic of 0.8 µg/mL (≈ 2.82 µM).
For `O=C1CN(C(=O)COC(=O)CCS(=O)(=O)c2ccccc2Cl)c2ccccc2N1`, the solubility kinetic was > 65.5 µg/mL.
`CNS(=O)(=O)c1ccc2c3c(cccc13)C(=O)N2` showed a solubility kinetic of 27.7 µg/mL (≈ 106 µM).
For `C=CCNc1cc(C)oc(=O)c1C(=O)CC`, the solubility kinetic was > 33.2 µg/mL.
`Nc1ncc([N+](=O)[O-])cc1S(=O)(=O)c1ccccc1` showed a solubility kinetic of 3.8 µg/mL (≈ 13.6 µM).
Compound `O=C(CC1C(=O)NCCN1Cc1cccc(F)c1)NC1CCC1` (stereo not given) has a solubility kinetic of 42 µg/mL (≈ 132 µM).
`O=C(NC1CC1)c1sc2cc(Cl)ccc2c1Cl` showed a solubility kinetic of 1.2 µg/mL (≈ 4.19 µM).
In the case of `Cc1cccc(N(C)S(=O)(=O)c2c(C)noc2C)c1`, the solubility kinetic was 37.1 µg/mL (≈ 132 µM).
With `Cc1cc(C)c(OCCN2CCOCC2)c(Cl)c1` the solubility kinetic was 26.6 µg/mL (≈ 98.6 µM).
Work on `O=C(Nc1ccc2c(c1)OCO2)c1noc2c1CCCC2` yielded a solubility kinetic of 4.1 µg/mL (≈ 14.3 µM).
With `CC(C)N(Cc1ccccc1)C(=O)COc1ccccc1` the solubility kinetic was 36.6 µg/mL (≈ 129 µM).
For `Cc1ccc(S(=O)(=O)NCC(=O)N2CCCC2C(=O)O)cc1` (stereo not drawn) (Tos-Gly-[ξP]-OH), the solubility kinetic was > 49 µg/mL.
For `O=C(NCc1ccc2c(c1)OCO2)c1ccc(Br)cc1`, the solubility kinetic was 3.1 µg/mL (≈ 9.28 µM).
For `Cc1cc(C)c2[nH]c(C)c(CN3CCCCCC3)c(=O)c2c1`, the solubility kinetic was > 44.8 µg/mL.
With `Cc1cc(F)ccc1S(=O)(=O)Nc1nc2ccccc2nc1Cl` the solubility kinetic was > 52.8 µg/mL.
In the case of `O=S(=O)(c1ccc(F)cc1)N1CCCC1c1cccnc1` (stereo not given), the solubility kinetic was > 46 µg/mL.
For `COc1ccc2c(c1)c(CC(=O)OCC(=O)O)c(C)n2C(=O)c1ccc(Cl)cc1`, the solubility kinetic was > 62.4 µg/mL.
In the case of `O=[N+]([O-])c1cccc(-c2cnc3ccccc3n2)c1`, the solubility kinetic was < 0.2 µg/mL.
In the case of `O=c1[nH]c(N2CCCCCC2)nc2ncn(Cc3ccccc3)c12`, the solubility kinetic was 13 µg/mL (≈ 40.2 µM).
